Data set [1] in a line: Antioxidant activity assessed as inhibition of AAPH-induced peroxyl radical generation measured as trolox equivalent preincubated for 15 mins followed by AAPH addition measured every min for 120 mins by ORAC-FL assay. In kind it is functional.
For data set [2], the target named is Cholinesterase (Equus caballus, UniProt P81908). Briefly: Inhibition of equine serum BChE using S-butyrylthiocholine iodide as substrate preincubated for 5 mins followed by substrate addition measured up to 180 secs by spectrophotometric analysis.
Cholinesterase (Equus caballus, UniProt P81908), sequence (P81908 whole entry): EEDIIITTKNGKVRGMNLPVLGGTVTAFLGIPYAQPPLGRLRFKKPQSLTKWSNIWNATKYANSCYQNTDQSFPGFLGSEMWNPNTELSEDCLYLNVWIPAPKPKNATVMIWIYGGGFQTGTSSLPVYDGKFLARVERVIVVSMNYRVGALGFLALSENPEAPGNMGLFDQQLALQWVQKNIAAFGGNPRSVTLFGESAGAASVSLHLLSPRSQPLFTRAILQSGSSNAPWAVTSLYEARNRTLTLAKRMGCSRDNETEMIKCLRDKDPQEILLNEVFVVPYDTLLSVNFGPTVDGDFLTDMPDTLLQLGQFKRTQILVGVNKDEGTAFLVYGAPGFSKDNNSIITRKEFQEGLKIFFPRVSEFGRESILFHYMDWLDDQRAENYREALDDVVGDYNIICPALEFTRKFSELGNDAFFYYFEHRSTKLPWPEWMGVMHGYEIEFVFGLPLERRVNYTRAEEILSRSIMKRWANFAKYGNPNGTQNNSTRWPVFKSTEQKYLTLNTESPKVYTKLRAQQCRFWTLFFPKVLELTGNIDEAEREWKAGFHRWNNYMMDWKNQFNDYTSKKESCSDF
The target of data set [3] is T1, Acetylcholinesterase (Homo sapiens, UniProt P22303). In words: Mixed-type inhibition of AChE (unknown origin) at 2.25 to 9 uM using acetylthiocholine iodide as substrate preincubated for 5 mins followed by substrate addition measured up to 180 secs by Lineweaver-Burk plot analysis.
T1 sequence (P22303 whole entry): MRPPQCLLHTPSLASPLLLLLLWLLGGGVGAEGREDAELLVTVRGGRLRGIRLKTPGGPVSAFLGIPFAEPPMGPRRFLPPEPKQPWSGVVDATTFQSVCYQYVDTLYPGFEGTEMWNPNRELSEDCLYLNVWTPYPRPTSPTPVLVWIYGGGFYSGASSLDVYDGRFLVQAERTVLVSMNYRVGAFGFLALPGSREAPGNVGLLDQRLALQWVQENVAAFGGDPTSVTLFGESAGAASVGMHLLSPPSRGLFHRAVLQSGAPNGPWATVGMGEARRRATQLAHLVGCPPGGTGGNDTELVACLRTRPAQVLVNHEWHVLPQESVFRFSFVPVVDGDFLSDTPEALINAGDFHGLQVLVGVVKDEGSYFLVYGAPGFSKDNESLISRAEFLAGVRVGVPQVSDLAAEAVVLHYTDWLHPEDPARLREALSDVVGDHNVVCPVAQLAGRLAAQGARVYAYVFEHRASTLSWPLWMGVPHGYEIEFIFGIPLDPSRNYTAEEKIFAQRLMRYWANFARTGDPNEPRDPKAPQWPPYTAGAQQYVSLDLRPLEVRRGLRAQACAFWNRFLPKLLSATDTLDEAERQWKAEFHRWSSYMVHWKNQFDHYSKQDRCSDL
Data set [4] can be described thus: Copper-chelating activity assessed as red shift by measuring maximum absorption at 25 uM after 30 mins by UV-vis spectrophotometric method (reference value: 230 nanometer).
The target in data set [5] is T1, Acetylcholinesterase. In words: Inhibition of human erythrocytic AChE using acetylthiocholine iodide as substrate preincubated for 5 mins followed by substrate addition measured up to 180 secs by spectrophotometric analysis.
Data set [6] can be described thus: Metal chelating activity assessed as Fe2+-compound complex formation at 25 uM after 30 mins by UV-vis spectrophotometric method.
The nature of data set [7]: Inhibition of Cu2+-mediated aggregation of amyloid beta (1 to 42) (unknown origin) at 50 uM after 24 hrs by thioflavin T fluorescence assay relative to control.
Data set [8] can be described thus: Inhibition of Cu2+-mediated aggregation of amyloid beta (1 to 42) (unknown origin) assessed as reduction in fibril formation at 50 uM after 24 hrs by transmission electron microscopic analysis.
A short description of data set [9]: Effective permeability of compound at 50 ug/mL after 16 hrs by PAMPA-BBB assay.
Data set [10] has as its target Acetylcholinesterase (Electrophorus electricus, UniProt O42275). Briefly: Inhibition of electric eel AChE using acetylthiocholine iodide as substrate preincubated for 5 mins followed by substrate addition measured up to 180 secs by spectrophotometric analysis.
Data set [11] in a line: Copper-chelating activity assessed as minimum absorption at 25 uM after 30 mins by UV-vis spectrophotometric method (reference value: 260 nanometer).
The nature of data set [12]: Metal chelating activity assessed as mole fraction of compound required to show 1:2 stoichiometry for Cu2+-compound complex at 25 uM after 30 mins by Job's plot analysis.
Data set [13] deals with Mus musculus. Briefly: Reversal of scopolamine-induced memory impairment in Kunming mouse assessed as increase in step-down latency time at 5 mg/kg, po administered 60 mins prior to training trial followed by scopolamine challenge at 30 mins post dose measured 24 hrs after training trial by passive avoidance test. In kind it is functional, organism-based.
Data set [14] can be described thus: Metal chelating activity assessed as Zn2+-compound complex formation at 25 uM after 30 mins by UV-vis spectrophotometric method.
For data set [15], the target named is Amyloid-beta precursor protein (Homo sapiens) (UniProt P05067). Briefly: Inhibition of HFIP pretreated amyloid beta (1 to 42) (unknown origin) self-aggregation at 20 uM after 48 hrs by thioflavin T fluorescence assay relative to control.
Amyloid-beta precursor protein (Homo sapiens), sequence (P05067 whole entry): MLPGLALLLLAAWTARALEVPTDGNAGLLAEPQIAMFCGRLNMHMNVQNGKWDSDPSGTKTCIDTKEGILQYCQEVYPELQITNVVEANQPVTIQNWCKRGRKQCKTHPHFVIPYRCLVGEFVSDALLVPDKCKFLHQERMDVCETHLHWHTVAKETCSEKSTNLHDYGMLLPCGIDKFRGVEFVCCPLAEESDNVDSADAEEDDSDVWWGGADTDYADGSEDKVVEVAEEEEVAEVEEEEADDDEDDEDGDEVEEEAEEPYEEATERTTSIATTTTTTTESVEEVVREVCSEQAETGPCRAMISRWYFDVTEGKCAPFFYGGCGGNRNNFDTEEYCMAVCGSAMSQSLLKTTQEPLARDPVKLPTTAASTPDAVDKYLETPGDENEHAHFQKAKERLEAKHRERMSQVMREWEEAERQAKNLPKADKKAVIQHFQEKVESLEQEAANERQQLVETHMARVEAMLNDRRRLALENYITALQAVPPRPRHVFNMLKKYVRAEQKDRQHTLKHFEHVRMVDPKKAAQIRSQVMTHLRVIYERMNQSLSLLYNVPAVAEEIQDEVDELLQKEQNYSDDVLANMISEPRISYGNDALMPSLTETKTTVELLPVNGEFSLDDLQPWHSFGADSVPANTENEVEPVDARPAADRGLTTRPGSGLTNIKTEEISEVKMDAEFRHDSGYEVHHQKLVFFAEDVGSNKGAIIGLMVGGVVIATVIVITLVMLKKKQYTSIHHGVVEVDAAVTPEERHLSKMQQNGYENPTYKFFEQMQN
Data set [16] can be described thus: Metal chelating activity assessed as Fe3+-compound complex formation at 25 uM after 30 mins by UV-vis spectrophotometric method.
The nature of data set [17]: Selectivity index, ratio of IC50 for equine serum BChE to IC50 for electric eel AChE.
In data set [18] the test system is PC-12. In words: Neuroprotective activity against H2O2-induced oxidative damage in rat PC12 cells assessed as increase in cell viability at 1.25 to 25 uM preincubated for 2 hrs followed by H2O2 challenge measured after 24 hrs by MTT assay. In kind it is functional, cell-based.
For data set [19], the system named is Mus musculus. Briefly: Reversal of scopolamine-induced memory impairment in Kunming mouse assessed as increase in step-down latency time at 5 to 15 mg/kg, po administered 60 mins prior to training trial followed by scopolamine challenge at 30 mins post dose measured 24 hrs after training trial by passive avoidance test. In kind it is functional, organism-based.

Data set [20] relates to PC-12. In words: Cytotoxicity against rat PC12 cells at 1.25 to 50 uM after 24 hrs by MTT assay. In kind it is cell-based. The settings on record: pc-12, 24 h.
For data set [21], the target named is Cholinesterase (Homo sapiens, UniProt P06276). Briefly: Inhibition of human serum BChE using S-butyrylthiocholine iodide as substrate preincubated for 5 mins followed by substrate addition measured up to 180 secs by spectrophotometric analysis.
Cholinesterase (Homo sapiens, UniProt P06276), sequence (P06276 whole entry): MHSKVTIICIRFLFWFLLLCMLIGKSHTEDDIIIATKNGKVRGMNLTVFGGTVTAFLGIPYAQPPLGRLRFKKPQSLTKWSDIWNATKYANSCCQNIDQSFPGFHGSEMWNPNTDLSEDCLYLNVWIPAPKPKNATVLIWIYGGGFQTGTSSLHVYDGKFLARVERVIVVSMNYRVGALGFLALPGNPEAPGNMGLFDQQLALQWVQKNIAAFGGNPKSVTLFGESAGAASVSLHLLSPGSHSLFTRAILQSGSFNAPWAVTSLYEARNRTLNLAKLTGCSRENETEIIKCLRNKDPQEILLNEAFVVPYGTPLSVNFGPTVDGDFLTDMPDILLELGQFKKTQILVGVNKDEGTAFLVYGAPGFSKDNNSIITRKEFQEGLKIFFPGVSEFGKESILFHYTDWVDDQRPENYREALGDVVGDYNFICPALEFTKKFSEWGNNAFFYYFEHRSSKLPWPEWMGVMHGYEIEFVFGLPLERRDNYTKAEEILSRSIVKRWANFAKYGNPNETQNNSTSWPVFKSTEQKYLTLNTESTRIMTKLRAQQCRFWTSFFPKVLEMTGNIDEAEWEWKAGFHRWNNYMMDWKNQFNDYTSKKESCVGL

pIC50: −log10 of the molar value. Active and inactive are the calls of the source. No cut-off for these calls is given here.

Acetylcholinesterase (Electrophorus electricus, UniProt O42275), sequence (O42275 whole entry): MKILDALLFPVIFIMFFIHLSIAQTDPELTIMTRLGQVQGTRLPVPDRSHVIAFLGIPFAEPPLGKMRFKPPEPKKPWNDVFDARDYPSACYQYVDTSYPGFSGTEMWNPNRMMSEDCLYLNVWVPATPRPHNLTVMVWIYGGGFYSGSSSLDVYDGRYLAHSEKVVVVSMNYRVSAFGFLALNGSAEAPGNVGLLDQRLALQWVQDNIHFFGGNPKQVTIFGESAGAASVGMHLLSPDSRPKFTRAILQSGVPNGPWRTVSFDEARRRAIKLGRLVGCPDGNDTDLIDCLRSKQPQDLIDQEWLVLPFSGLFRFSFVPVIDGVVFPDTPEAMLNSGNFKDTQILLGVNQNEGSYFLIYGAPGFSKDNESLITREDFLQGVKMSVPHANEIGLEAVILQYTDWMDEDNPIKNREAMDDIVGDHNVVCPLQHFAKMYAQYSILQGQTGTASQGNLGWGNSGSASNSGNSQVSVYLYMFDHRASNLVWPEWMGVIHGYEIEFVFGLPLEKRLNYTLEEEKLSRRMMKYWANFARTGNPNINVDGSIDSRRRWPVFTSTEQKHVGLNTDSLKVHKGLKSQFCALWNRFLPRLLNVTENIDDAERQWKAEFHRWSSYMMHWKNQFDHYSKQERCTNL

For `CN(Cc1ccccc1)Cc1ccc(NC(=O)/C=C/c2ccc(O)c(O)c2)cc1`, the Activity is 4.24 equiv in data set [1], 245 nm in data set [4], 274 nm in data set [11] and “Non-Toxic” in the data set on PC-12 [20]. Also, the pIC50 against Cholinesterase [2] is 5.01; at Acetylcholinesterase [5], 5.27; against Acetylcholinesterase [10] it was 5.33; against Cholinesterase [21], 5.10. The inhibition result (on Acetylcholinesterase [3]; in data set [8]) was “Active” in each case. For the same compound, the result in data set [6] was inactive. For the same compound, the inhibition in data set [7] came to 87.4%; in data set [15] it was 56.2%. This compound came in with a Papp at 16 h, 50 ug/mL in [9] of 5.34 ×10⁻⁶ cm/s. In addition, the Activity (mole fraction) in [12] was determined as 0.67. The result (in the data set with Mus musculus [13]; in data set [14]; in data set [16]; in the data set with PC-12 [18]; with Mus musculus [19]) was Active. For the same compound, in data set [17], the Ratio IC50 is 2.1.

(Values after ChEMBL document CHEMBL4190315, “Novel cinnamamide-dibenzylamine hybrids: Potent neurogenic agents with antioxidant, cholinergic, and neuroprotective properties as innovative drugs for Alzheimer's disease” (Eur J Med Chem, 2017).)
